In the test the test system is MV-4-11 cells. The test can be described thus: Gene expression microarray analysis (Affymetrix PrimeView) and GSEA. It is filed as cell-based, human. Further details: RFU PODN (11730768_x_at) / Fold change /veh PODN (11730768_x_at) / RFU LINC00158 (11744669_a_at) / Fold change /veh LINC00158 (11744669_a_at) / RFU DUSP10 (11751237_a_at) / Fold change /veh DUSP10 (11751237_a_at) / RFU ID3 (11757404_x_at) / Fold change /veh ID3 (11757404_x_at) / RFU PLEKHG5 (11737974_s_at) / Fold change /veh PLEKHG5 (11737974_s_at) / RFU LRRC4B (11730491_at) / Fold change /veh LRRC4B (11730491_at) / RFU GIMAP4 (11747438_a_at) / Fold change /veh GIMAP4 (11747438_a_at) / RFU KRT8 (11758183_x_at) / Fold change /veh KRT8 (11758183_x_at) / RFU CNN1 (11734310_a_at) / Fold change /veh CNN1 (11734310_a_at) / RFU VPS37D (11726825_at) / Fold change /veh VPS37D (11726825_at) / RFU C10orf10 (11716522_x_at) / Fold change /veh C10orf10 (11716522_x_at) / RFU KIR2DL2 /// KIR2DL4 /// KIR2DL5A /// KIR2DL5B /// KIR2DS1 /// KIR2DS2 /// KIR2DS3 /// KIR2DS4 /// KIR3DL3 /// KIR3DL3 /// KIR3DS1 (11738374_at) / Fold change /veh KIR2DL2 /// KIR2DL4 /// KIR2DL5A /// KIR2DL5B /// KIR2DS1 /// KIR2DS2 /// KIR2DS3 /// KIR2DS4 /// KIR3DL3 /// KIR3DL3 /// KIR3DS1 (11738374_at) / RFU C1QL1 (11718748_at) / Fold change /veh C1QL1 (11718748_at) / RFU TMPRSS4 (11747572_a_at) / Fold change /veh TMPRSS4 (11747572_a_at) / RFU HAMP (11756126_x_at) / Fold change /veh HAMP (11756126_x_at) / RFU RNFT2 (11725882_a_at) / Fold change /veh RNFT2 (11725882_a_at) / RFU NR4A2 (11747474_a_at) / Fold change /veh NR4A2 (11747474_a_at) / RFU ABCC12 (11746883_a_at) / Fold change /veh ABCC12 (11746883_a_at) / RFU TMEM136 (11760407_x_at) / Fold change /veh TMEM136 (11760407_x_at) / RFU CLDN22 /// WWC2 (11732394_at) / Fold change /veh CLDN22 /// WWC2 (11732394_at) / RFU HLA-DPB1 (11760878_x_at) / Fold change /veh HLA-DPB1 (11760878_x_at) / RFU SPINT1 (11716480_a_at) / Fold change /veh SPINT1 (11716480_a_at) / RFU GAP43 (11754022_s_at) / Fold change /veh GAP43 (11754022_s_at) / RFU A4GNT (11735810_at) / Fold change /veh A4GNT (11735810_at) / RFU PRB3 (11715151_x_at) / Fold change /veh PRB3 (11715151_x_at) / RFU TUBB4B (11761932_at) / Fold change /veh TUBB4B (11761932_at) / RFU CAPN14 (11732068_a_at) / Fold change /veh CAPN14 (11732068_a_at) / RFU TMCC2 (11721928_a_at) / Fold change /veh TMCC2 (11721928_a_at) / RFU IRGQ (11745062_a_at) / Fold change /veh IRGQ (11745062_a_at) / RFU FAM174B (11720279_a_at) / Fold change /veh FAM174B (11720279_a_at) / RFU TMPRSS4 (11748680_a_at) / Fold change /veh TMPRSS4 (11748680_a_at) / RFU FAM212B (11763350_a_at) / Fold change /veh FAM212B (11763350_a_at) / RFU PLEKHG5 (11743358_a_at) / Fold change /veh PLEKHG5 (11743358_a_at) / RFU ZSCAN30 (11745921_a_at) / Fold change /veh ZSCAN30 (11745921_a_at) / RFU CMKLR1 (11741424_a_at) / Fold change /veh CMKLR1 (11741424_a_at) / RFU LOC101060620 /// MAPK8IP1 (11723275_at) / Fold change /veh LOC101060620 /// MAPK8IP1 (11723275_at) / RFU SPTSSB (11747773_x_at) / Fold change /veh SPTSSB (11747773_x_at) / RFU PRSS12 (11739890_at) / Fold change /veh PRSS12 (11739890_at) / RFU BIN1 (11741810_x_at) / Fold change /veh BIN1 (11741810_x_at) / RFU WNT11 (11732464_a_at) / Fold change /veh WNT11 (11732464_a_at) / RFU C10orf10 (11716521_a_at) / Fold change /veh C10orf10 (11716521_a_at) / RFU C5orf56 (11738089_at) / Fold change /veh C5orf56 (11738089_at) / RFU CYB561 (11721691_x_at) / Fold change /veh CYB561 (11721691_x_at) / RFU ANKRD19P (11752326_a_at) / Fold change /veh ANKRD19P (11752326_a_at) / RFU OR2T12 /// OR2T33 /// OR2T8 (11738714_s_at) / Fold change /veh OR2T12 /// OR2T33 /// OR2T8 (11738714_s_at) / RFU VCAN (11748164_a_at) / Fold change /veh VCAN (11748164_a_at) / RFU JSRP1 (11732532_at) / Fold change /veh JSRP1 (11732532_at) / RFU KRTAP10-11 (11738290_x_at) / Fold change /veh KRTAP10-11 (11738290_x_at) / RFU MYO3A (11730013_a_at) / Fold change /veh MYO3A (11730013_a_at) / RFU EBF3 (11725865_a_at) / Fold change /veh EBF3 (11725865_a_at) / RFU CAMK2N1 (11719241_x_at) / Fold change /veh CAMK2N1 (11719241_x_at) / RFU C5orf56 (11738088_a_at) / Fold change /veh C5orf56 (11738088_a_at) / RFU OLFML3 (11715873_a_at) / Fold change /veh OLFML3 (11715873_a_at) / RFU LOC100653217 /// NTM (11731650_a_at) / Fold change /veh LOC100653217 /// NTM (11731650_a_at) / RFU MAPK11 (11762145_a_at) / Fold change /veh MAPK11 (11762145_a_at) / RFU FIZ1 (11724087_x_at) / Fold change /veh FIZ1 (11724087_x_at) / RFU OASL (11726364_x_at) / Fold change /veh OASL (11726364_x_at) / RFU SOX15 (11748057_x_at) / Fold change /veh SOX15 (11748057_x_at) / RFU CD79A (11719716_a_at) / Fold change /veh CD79A (11719716_a_at) / RFU HIST1H1D (11736915_at) / Fold change /veh HIST1H1D (11736915_at) / RFU CASKIN2 (11723855_a_at) / Fold change /veh CASKIN2 (11723855_a_at) / RFU LOC730098 (11760151_x_at) / Fold change /veh LOC730098 (11760151_x_at) / RFU OR4N2 (11742367_at) / Fold change /veh OR4N2 (11742367_at) / RFU PRRT2 (11749266_a_at) / Fold change /veh PRRT2 (11749266_a_at) / RFU SNX32 (11753110_a_at) / Fold change /veh SNX32 (11753110_a_at) / RFU CDHR5 (11726645_a_at) / Fold change /veh CDHR5 (11726645_a_at) / RFU RCAN1 (11760418_a_at) / Fold change /veh RCAN1 (11760418_a_at) / RFU FAM167A (11723789_a_at) / Fold change /veh FAM167A (11723789_a_at) / RFU FAM26E (11764081_at) / Fold change /veh FAM26E (11764081_at) / RFU ISYNA1 (11749810_s_at) / Fold change /veh ISYNA1 (11749810_s_at) / RFU ACY1 (11761880_at) / Fold change /veh ACY1 (11761880_at) / RFU 11764098_at / Fold change /veh 11764098_at / RFU SAMD14 (11745864_x_at) / Fold change /veh SAMD14 (11745864_x_at) / RFU NPB (11741838_a_at) / Fold change /veh NPB (11741838_a_at) / RFU TMPRSS6 (11731388_a_at) / Fold change /veh TMPRSS6 (11731388_a_at) / RFU KRTAP10-2 (11738614_at) / Fold change /veh KRTAP10-2 (11738614_at) / RFU ARHGAP8 /// PRR5-ARHGAP8 (11727945_x_at) / Fold change /veh ARHGAP8 /// PRR5-ARHGAP8 (11727945_x_at) / RFU KRTAP5-7 /// NADSYN1 (11734609_at) / Fold change /veh KRTAP5-7 /// NADSYN1 (11734609_at) / RFU RASL12 (11751679_a_at) / Fold change /veh RASL12 (11751679_a_at) / RFU CDKN2B (11736163_a_at) / Fold change /veh CDKN2B (11736163_a_at) / RFU PRF1 (11729649_at) / Fold change /veh PRF1 (11729649_at) / RFU, ZNF638 /// ZNF638-IT1 / Fold change vs veh, ZNF638 /// ZNF638-IT1 / RFU, PANK3 / Fold change vs veh, PANK3 / RFU, SH3YL1 / Fold change vs veh, SH3YL1 / RFU, ZEB2 / Fold change vs veh, ZEB2 / RFU, NRIP1 / Fold change vs veh, NRIP1 / RFU, PTTG1IP / Fold change vs veh, PTTG1IP / RFU, CAPN2 / Fold change vs veh, CAPN2 / RFU, MED14 / Fold change vs veh, MED14 / RFU, SNORA58 / Fold change vs veh, SNORA58 / RFU, C1orf63 / Fold change vs veh, C1orf63 / RFU, LRRFIP1 / Fold change vs veh, LRRFIP1 / RFU, NDUFAF7 / Fold change vs veh, NDUFAF7 / RFU, SLC12A2 / Fold change vs veh, SLC12A2 / RFU, IBTK / Fold change vs veh, IBTK / RFU, ESF1 / Fold change vs veh, ESF1 / Fold change vs veh, TMEM50B / RFU, TAOK1 / Fold change vs veh, TAOK1 / RFU, ACBD3 / Fold change vs veh, ACBD3 / RFU, TMA16 / Fold change vs veh, TMA16 / RFU, RWDD3 / Fold change vs veh, RWDD3 / RFU, BCAT1 / Fold change vs veh, BCAT1 / RFU, EDEM3 / Fold change vs veh, EDEM3 / RFU, TMEM33 / Fold change vs veh, TMEM33 / RFU, WDR75 / Fold change vs veh, WDR75 / RFU, AHCTF1 / Fold change vs veh, AHCTF1 / RFU, TFRC / Fold change vs veh, TFRC / RFU, ZDHHC17 / Fold change vs veh, ZDHHC17 / RFU, NOM1 / Fold change vs veh, NOM1 / RFU, ARL8B / Fold change vs veh, ARL8B / RFU, ZBTB11 / Fold change vs veh, ZBTB11 / RFU, TAMM41 / Fold change vs veh, TAMM41 / RFU, KIAA1704 /// LOC100996395 / Fold change vs veh, KIAA1704 /// LOC100996395 / RFU, ING1 / Fold change vs veh, ING1 / RFU, TRMT61B / Fold change vs veh, TRMT61B / RFU, FUBP3 / Fold change vs veh, FUBP3 / RFU, TP53 / Fold change vs veh, TP53 / RFU, TNKS2 / Fold change vs veh, TNKS2 / RFU, ZFP14 / Fold change vs veh, ZFP14 / RFU, ACTR2 / Fold change vs veh, ACTR2 / RFU, PPP3R1 / Fold change vs veh, PPP3R1 / RFU, PIK3R1 / Fold change vs veh, PIK3R1 / RFU, HNRNPA1 / Fold change vs veh, HNRNPA1 / RFU, RNF170 / Fold change vs veh, RNF170 / RFU, ZNF28 / Fold change vs veh, ZNF28 / RFU, RNGTT / Fold change vs veh, RNGTT / RFU, OGT / Fold change vs veh, OGT / RFU, BRD1 / Fold change vs veh, BRD1 / RFU, MARS / Fold change vs veh, MARS / RFU, ZNF655 / Fold change vs veh, ZNF655 / RFU, FAHD1 / Fold change vs veh, FAHD1 / RFU, BDP1 / Fold change vs veh, BDP1 / RFU, LRRCC1 / Fold change vs veh, LRRCC1 / RFU, ARID1A / Fold change vs veh, ARID1A / RFU, ZNF146 / Fold change vs veh, ZNF146 / RFU, ZNF330 / Fold change vs veh, ZNF330 / RFU, GPN3 / Fold change vs veh, GPN3 / RFU, C9orf123 / Fold change vs veh, C9orf123 / RFU, N4BP2L2 / Fold change vs veh, N4BP2L2 / RFU, ARFIP1 / Fold change vs veh, ARFIP1 / RFU, FAM179B / Fold change vs veh, FAM179B / RFU, BCL10 / Fold change vs veh, BCL10 / RFU, UHRF1BP1L / Fold change vs veh, UHRF1BP1L / RFU, BET1 / Fold change vs veh, BET1 / RFU, CNOT2 / Fold change vs veh, CNOT2 / RFU, ZNF268 / Fold change vs veh, ZNF268 / Fold change vs veh, ZNF507 / RFU, DGCR2 / Fold change vs veh, DGCR2 / RFU, WDSUB1 / Fold change vs veh, WDSUB1 / Fold change vs veh, HSP90B1 /// MIR3652 / RFU, ADSS / Fold change vs veh, ADSS / RFU, GK / Fold change vs veh, GK / RFU, ZNF148 / Fold change vs veh, ZNF148 / RFU, TAF9 / Fold change vs veh, TAF9 / RFU, SLC1A5 / Fold change vs veh, SLC1A5 / RFU, SLMO2 / Fold change vs veh, SLMO2 / RFU, ABCC4 / Fold change vs veh, ABCC4 / RFU, LOC101060439 /// RAP1B / Fold change vs veh, LOC101060439 /// RAP1B / RFU, RFX7 / Fold change vs veh, RFX7 / RFU, GTPBP10 / Fold change vs veh, GTPBP10 / RFU, CNEP1R1 / Fold change vs veh, CNEP1R1 / RFU, BIVM-ERCC5 /// ERCC5 / Fold change vs veh, BIVM-ERCC5 /// ERCC5 / RFU, ILF3 / Fold change vs veh, ILF3 / RFU 11762660_at / Fold change /veh 11762660_at / RFU VCAN (11757783_s_at) / Fold change /veh VCAN (11757783_s_at) / RFU DDX43 (11728927_at) / Fold change /veh DDX43 (11728927_at) / RFU KRT8 (11758188_x_at) / Fold change /veh KRT8 (11758188_x_at) / RFU NKD1 (11759106_at) / Fold change /veh NKD1 (11759106_at) / RFU SRD5A1 (11742802_a_at) / Fold change /veh SRD5A1 (11742802_a_at) / RFU TPSAB1 /// TPSB2 (11721975_s_at) / Fold change /veh TPSAB1 /// TPSB2 (11721975_s_at) / RFU GSTM3 (11746129_a_at) / Fold change /veh GSTM3 (11746129_a_at) / RFU IL23R (11737362_x_at) / Fold change /veh IL23R (11737362_x_at) / RFU TMEM51 (11727254_a_at) / Fold change /veh TMEM51 (11727254_a_at) / RFU PIWIL2 (11732686_x_at) / Fold change /veh PIWIL2 (11732686_x_at) / RFU ORM1 (11744905_x_at) / Fold change /veh ORM1 (11744905_x_at) / RFU CCDC152 (11743942_at) / Fold change /veh CCDC152 (11743942_at) / RFU ECM1 (11717891_a_at) / Fold change /veh ECM1 (11717891_a_at) / RFU IL23R (11748794_a_at) / Fold change /veh IL23R (11748794_a_at) / RFU TNFAIP8L3 (11732012_x_at) / Fold change /veh TNFAIP8L3 (11732012_x_at) / RFU MBOAT4 (11741988_at) / Fold change /veh MBOAT4 (11741988_at) / RFU 11764193_at / Fold change /veh 11764193_at / RFU TMEM53 (11763286_at) / Fold change /veh TMEM53 (11763286_at) / RFU MAGEB2 (11727129_at) / Fold change /veh MAGEB2 (11727129_at) / RFU TMEM200A (11744735_a_at) / Fold change /veh TMEM200A (11744735_a_at) / RFU CCDC152 (11751479_a_at) / Fold change /veh CCDC152 (11751479_a_at) / RFU FAM211A (11726209_a_at) / Fold change /veh FAM211A (11726209_a_at) / RFU RGS16 (11746705_a_at) / Fold change /veh RGS16 (11746705_a_at) / RFU VCAN (11755009_s_at) / Fold change /veh VCAN (11755009_s_at) / RFU RHOB (11743442_s_at) / Fold change /veh RHOB (11743442_s_at) / RFU RGS16 (11720943_a_at) / Fold change /veh RGS16 (11720943_a_at) / RFU RGS16 (11720944_at) / Fold change /veh RGS16 (11720944_at) / RFU, VPS4B / Fold change vs veh, VPS4B / RFU, CREB1 / Fold change vs veh, CREB1 / RFU, DNAJC13 / Fold change vs veh, DNAJC13 / RFU, GNAQ / Fold change vs veh, GNAQ / RFU, CDK5R1 / Fold change vs veh, CDK5R1 / RFU, ZRANB3 / Fold change vs veh, ZRANB3 / RFU, CUL4A / Fold change vs veh, CUL4A / RFU, CCNY / Fold change vs veh, CCNY / RFU, UFL1 / Fold change vs veh, UFL1 / RFU, COG3 / Fold change vs veh, COG3 / RFU, DIAPH2 / Fold change vs veh, DIAPH2 / RFU, SKA2 / Fold change vs veh, SKA2 / RFU, AFF3 / Fold change vs veh, AFF3 / RFU, LMF1 / Fold change vs veh, LMF1 / RFU, IPO11 / Fold change vs veh, IPO11 / RFU, DFFB / Fold change vs veh, DFFB / RFU, FOXP1 / Fold change vs veh, FOXP1 / RFU, CARD8 / Fold change vs veh, CARD8 / RFU, STRN3 / Fold change vs veh, STRN3 / RFU, ADK / Fold change vs veh, ADK / RFU, RASSF2 / Fold change vs veh, RASSF2 / RFU, WIPF1 / Fold change vs veh, WIPF1 / RFU, LARP1B / Fold change vs veh, LARP1B / RFU, RASA1 / Fold change vs veh, RASA1 / RFU, RB1 / Fold change vs veh, RB1 / RFU, PPFIA1 / Fold change vs veh, PPFIA1 / RFU, MAT2A / Fold change vs veh, MAT2A / RFU, CCT5 / Fold change vs veh, CCT5 / RFU, WDR92 / Fold change vs veh, WDR92 / RFU, CUX1 / Fold change vs veh, CUX1 / RFU, TTC7A / Fold change vs veh, TTC7A / RFU, TMEM135 / Fold change vs veh, TMEM135 / RFU, DEPTOR / Fold change vs veh, DEPTOR / RFU, CPM / Fold change vs veh, CPM / RFU, DNAJB6 / Fold change vs veh, DNAJB6 / RFU, CACNA2D3 / Fold change vs veh, CACNA2D3 / RFU, DTX4 / Fold change vs veh, DTX4 / RFU, TFCP2 / Fold change vs veh, TFCP2 / RFU, GMCL1 /// GMCL1P1 / Fold change vs veh, GMCL1 /// GMCL1P1 / RFU, AEBP2 / Fold change vs veh, AEBP2 / RFU, SNHG1 /// SNORD22 /// SNORD25 /// SNORD26 /// SNORD27 /// SNORD28 /// SNORD29 /// SNORD31 / Fold change vs veh, SNHG1 /// SNORD22 /// SNORD25 /// SNORD26 /// SNORD27 /// SNORD28 /// SNORD29 /// SNORD31 / Fold change (Aza/veh), C12orf56 (ProbeSet 11735607_a_at) / Fold change (ACY-1035/veh), C12orf56 (ProbeSet 11735607_a_at) / Fold change (Aza/veh), FGFR1OP (ProbeSet 11751329_s_at) / Fold change (ACY-1035/veh), FGFR1OP (ProbeSet 11751329_s_at) / Fold change (Aza/veh), VPS36 (ProbeSet 11739960_a_at) / Fold change (ACY-1035/veh), VPS36 (ProbeSet 11739960_a_at) / RFU SYPL1 (11715823_x_at) / Fold change /veh SYPL1 (11715823_x_at) / RFU IGFBP7 (11715501_s_at) / Fold change /veh IGFBP7 (11715501_s_at) / RFU REEP3 (11722064_at) / Fold change /veh REEP3 (11722064_at) / RFU IGLL1 (11728026_x_at) / Fold change /veh IGLL1 (11728026_x_at): dose or concentration left out as unconfirmed. The conditions noted are these: MV-4-11 cells, 48 hours.

On to `Nc1ncn([C@@H]2O[C@H](CO)[C@@H](O)[C@H]2O)c(=O)n1` [azacitidine], for which the “Fold change /veh A4GNT (11735810_at)” value was 0.90.

The values are drawn from publication PMC5218480 (PLoS ONE, 2017).
